Data taken from ChEMBL document CHEMBL1938382, “Fragment-based discovery of indole inhibitors of matrix metalloproteinase-13” (J Med Chem, 2011).
Values after ≈ are worked out from the molar mass of the structure shown.

How the values were obtained:
[1] = molecular target: 72 kDa type IV collagenase (Homo sapiens, UniProt P08253); test: Inhibition of human recombinant MMP2 after 30 mins by fluorimetry
Collagenase 3 [2] = molecular target: T1, Collagenase 3 (Homo sapiens, UniProt P45452)
Description: Inhibition of human MMP13 expressed in Escherichia coli after 30 mins by fluorimetry

[3] = molecular target: Matrix metalloproteinase-14 (Homo sapiens, UniProt P50281); test: Inhibition of human recombinant MMP14 after 60 mins by fluorimetry
Collagenase 3 [4] = molecular target: T1, Collagenase 3; test: Inhibition of MMP13 after 30 mins by fluorimetry in the presence of 1.25% human serum albumin
Liver microsomes = test: Drug metabolism in Sprague-Dawley rat liver microsomes assessed as ester hydrolysis product formation; type: ADME, Microsome
[5] = Metabolic stability in human liver microsomes after 5 mins relative to human hepatic blood flow; type: ADME, Microsome; settings: read-out: Stability
Cytochrome P450 2C9 = Cytochrome P450 2C9 (Homo sapiens, UniProt P11712); test: Inhibition of human recombinant CYP2C9 using 7-methoxy-4-trifluoromethylcoumarin as substrate after 45 mins by fluorimetry; type: ADME
Chain of Cytochrome P450 2C9 (P11712 whole entry): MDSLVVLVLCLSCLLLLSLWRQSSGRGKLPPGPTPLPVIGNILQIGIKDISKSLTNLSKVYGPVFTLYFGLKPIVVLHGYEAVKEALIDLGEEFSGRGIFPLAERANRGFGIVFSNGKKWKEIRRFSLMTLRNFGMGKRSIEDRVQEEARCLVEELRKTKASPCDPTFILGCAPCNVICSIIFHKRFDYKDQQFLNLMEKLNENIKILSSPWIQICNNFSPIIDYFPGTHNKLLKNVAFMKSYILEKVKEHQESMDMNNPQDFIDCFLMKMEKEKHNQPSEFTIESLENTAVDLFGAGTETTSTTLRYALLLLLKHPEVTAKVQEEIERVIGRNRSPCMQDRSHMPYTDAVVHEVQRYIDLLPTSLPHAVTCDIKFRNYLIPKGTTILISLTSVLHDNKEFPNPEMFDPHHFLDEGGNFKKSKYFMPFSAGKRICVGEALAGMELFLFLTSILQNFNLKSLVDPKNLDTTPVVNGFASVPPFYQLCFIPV

[6] = molecular target: Macrophage metalloelastase (Homo sapiens, UniProt P39900); test: Inhibition of human recombinant MMP12 after 30 mins by fluorimetry
Chain of Macrophage metalloelastase (P39900 whole entry): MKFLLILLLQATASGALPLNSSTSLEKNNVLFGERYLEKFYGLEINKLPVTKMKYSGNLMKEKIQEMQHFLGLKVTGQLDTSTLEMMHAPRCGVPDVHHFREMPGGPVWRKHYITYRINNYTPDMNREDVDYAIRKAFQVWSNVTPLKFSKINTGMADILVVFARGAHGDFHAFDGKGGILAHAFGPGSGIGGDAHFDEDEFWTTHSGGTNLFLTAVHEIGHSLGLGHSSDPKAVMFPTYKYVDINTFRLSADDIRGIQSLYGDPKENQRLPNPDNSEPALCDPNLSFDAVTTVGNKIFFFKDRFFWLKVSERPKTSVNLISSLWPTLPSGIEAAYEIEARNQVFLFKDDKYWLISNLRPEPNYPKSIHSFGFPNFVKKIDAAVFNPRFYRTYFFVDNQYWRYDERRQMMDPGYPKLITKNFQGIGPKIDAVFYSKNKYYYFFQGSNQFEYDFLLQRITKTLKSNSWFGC

Collagenase 3 [7] = molecular target: T1, Collagenase 3; test: Inhibition of human MMP13-mediated degradation of bovine nasal cartilage after 2 hrs by ELISA in the presence of 10% human serum
[8] = Aqueous solubility of the compound at pH 7.4 by UV spectrophotometry; type: physicochemical; settings: buffer
Stromelysin-1 = Stromelysin-1 (Homo sapiens, UniProt P08254); test: Inhibition of human recombinant MMP3 after 30 mins by fluorimetry
Chain of Stromelysin-1 (P08254 whole entry): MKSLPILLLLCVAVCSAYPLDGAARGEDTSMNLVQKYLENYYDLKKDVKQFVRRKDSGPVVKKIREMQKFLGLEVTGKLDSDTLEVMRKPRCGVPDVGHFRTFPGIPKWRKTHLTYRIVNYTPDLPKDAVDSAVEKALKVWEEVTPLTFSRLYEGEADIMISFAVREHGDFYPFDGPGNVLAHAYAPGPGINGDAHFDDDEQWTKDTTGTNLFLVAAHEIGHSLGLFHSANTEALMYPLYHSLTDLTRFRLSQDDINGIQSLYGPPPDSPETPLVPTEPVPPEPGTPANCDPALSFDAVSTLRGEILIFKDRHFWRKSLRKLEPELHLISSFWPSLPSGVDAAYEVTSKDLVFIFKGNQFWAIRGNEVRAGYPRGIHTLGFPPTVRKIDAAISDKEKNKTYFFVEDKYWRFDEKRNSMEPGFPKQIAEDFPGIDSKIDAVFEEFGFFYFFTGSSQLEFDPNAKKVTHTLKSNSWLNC

Neutrophil collagenase = Neutrophil collagenase (Homo sapiens, UniProt P22894); test: Inhibition of human recombinant MMP8 after 30 mins by fluorimetry
Chain of Neutrophil collagenase (P22894 whole entry): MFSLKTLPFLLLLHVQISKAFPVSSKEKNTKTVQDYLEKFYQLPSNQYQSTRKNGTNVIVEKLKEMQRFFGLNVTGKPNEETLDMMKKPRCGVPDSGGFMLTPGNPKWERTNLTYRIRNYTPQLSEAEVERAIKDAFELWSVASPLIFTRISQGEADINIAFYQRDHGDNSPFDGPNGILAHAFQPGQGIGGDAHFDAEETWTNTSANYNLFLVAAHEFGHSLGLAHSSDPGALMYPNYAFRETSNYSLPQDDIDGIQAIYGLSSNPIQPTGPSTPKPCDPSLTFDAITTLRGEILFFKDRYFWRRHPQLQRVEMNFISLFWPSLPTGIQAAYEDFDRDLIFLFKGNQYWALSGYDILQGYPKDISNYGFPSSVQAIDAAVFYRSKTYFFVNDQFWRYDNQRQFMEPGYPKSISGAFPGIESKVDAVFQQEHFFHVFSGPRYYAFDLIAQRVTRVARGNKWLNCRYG

[9] = Half life in Sprague-Dawley rat at 1 mg/kg, iv and 10 mg/kg, po; type: ADME, organism-based; settings: in vivo
[10] = Oral bioavailability in Sprague-Dawley rat at 10 mg/kg; type: ADME, organism-based; settings: in vivo
Rattus norvegicus [11] = test: AUC in Sprague-Dawley rat at 10 mg/kg, po; type: ADME, organism-based, Plasma; design: dose 10 mg/kg, route oral; settings: in vivo
Stromelysin-2 = Stromelysin-2 (Homo sapiens, UniProt P09238); test: Inhibition of human recombinant MMP10 after 30 mins by fluorimetry
Chain of Stromelysin-2 (P09238 whole entry): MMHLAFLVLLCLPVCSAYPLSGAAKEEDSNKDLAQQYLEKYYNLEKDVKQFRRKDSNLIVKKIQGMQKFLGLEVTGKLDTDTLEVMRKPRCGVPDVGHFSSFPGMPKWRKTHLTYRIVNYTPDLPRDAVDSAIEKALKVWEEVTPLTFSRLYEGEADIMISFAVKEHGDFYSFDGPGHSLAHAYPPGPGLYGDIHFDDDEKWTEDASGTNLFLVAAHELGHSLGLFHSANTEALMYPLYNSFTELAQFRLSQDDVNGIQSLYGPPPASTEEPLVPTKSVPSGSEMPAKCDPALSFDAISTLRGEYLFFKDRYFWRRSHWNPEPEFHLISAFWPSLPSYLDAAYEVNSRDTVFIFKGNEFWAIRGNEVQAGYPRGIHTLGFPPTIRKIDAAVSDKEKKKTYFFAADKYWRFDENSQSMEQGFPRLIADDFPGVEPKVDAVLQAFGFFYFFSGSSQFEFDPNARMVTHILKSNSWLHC

Matrilysin = molecular target: T2, Matrilysin (Homo sapiens, UniProt P09237); test: Inhibition of human recombinant MMP7 after 30 mins by fluorimetry
T2 sequence (P09237 whole entry): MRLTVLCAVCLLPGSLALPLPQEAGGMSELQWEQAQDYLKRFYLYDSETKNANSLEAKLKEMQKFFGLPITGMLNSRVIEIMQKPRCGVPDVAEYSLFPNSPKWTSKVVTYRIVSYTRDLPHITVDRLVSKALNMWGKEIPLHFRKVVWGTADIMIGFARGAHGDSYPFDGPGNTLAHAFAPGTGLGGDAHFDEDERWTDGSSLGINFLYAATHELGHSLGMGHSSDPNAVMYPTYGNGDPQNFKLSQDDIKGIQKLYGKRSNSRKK

[12] = Cmax in Sprague-Dawley rat at 1 mg/kg, iv and 10 mg/kg, po; type: ADME, organism-based; settings: in vivo
[13] = molecular target: Matrix metalloproteinase-9 (Homo sapiens, UniProt P14780); test: Inhibition of human recombinant MMP9 after 30 mins by fluorimetry
Chain of Matrix metalloproteinase-9 (P14780 whole entry): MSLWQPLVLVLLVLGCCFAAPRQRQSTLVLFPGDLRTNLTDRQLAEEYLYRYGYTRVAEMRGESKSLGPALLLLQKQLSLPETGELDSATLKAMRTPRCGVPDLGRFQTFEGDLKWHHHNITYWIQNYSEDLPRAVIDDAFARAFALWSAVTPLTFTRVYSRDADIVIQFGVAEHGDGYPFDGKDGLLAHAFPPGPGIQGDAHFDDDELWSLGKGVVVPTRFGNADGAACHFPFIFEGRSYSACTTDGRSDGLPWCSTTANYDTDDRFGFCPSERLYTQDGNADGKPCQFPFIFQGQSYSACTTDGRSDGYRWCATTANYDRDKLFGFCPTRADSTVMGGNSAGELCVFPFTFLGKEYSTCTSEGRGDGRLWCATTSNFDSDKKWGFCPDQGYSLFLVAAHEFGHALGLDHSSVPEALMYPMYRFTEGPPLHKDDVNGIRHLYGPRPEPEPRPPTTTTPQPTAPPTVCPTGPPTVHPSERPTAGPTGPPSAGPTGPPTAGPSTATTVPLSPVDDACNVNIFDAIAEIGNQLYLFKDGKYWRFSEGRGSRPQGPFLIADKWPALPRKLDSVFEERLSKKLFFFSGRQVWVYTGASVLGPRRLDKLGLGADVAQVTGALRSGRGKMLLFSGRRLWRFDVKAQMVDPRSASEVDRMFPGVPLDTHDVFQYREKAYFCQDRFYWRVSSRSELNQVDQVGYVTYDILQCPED

Collagenase 3 [14] = molecular target: T1, Collagenase 3; test: Inhibition of […]-activated MMP13-mediated degradation of FITC-labeled type2 collagen after 1.5 hrs by fluorimetry
Interstitial collagenase = molecular target: T3, Interstitial collagenase (Homo sapiens, UniProt P03956); test: Inhibition of human recombinant MMP1 after 30 mins by fluorimetry
T3 sequence (P03956 whole entry): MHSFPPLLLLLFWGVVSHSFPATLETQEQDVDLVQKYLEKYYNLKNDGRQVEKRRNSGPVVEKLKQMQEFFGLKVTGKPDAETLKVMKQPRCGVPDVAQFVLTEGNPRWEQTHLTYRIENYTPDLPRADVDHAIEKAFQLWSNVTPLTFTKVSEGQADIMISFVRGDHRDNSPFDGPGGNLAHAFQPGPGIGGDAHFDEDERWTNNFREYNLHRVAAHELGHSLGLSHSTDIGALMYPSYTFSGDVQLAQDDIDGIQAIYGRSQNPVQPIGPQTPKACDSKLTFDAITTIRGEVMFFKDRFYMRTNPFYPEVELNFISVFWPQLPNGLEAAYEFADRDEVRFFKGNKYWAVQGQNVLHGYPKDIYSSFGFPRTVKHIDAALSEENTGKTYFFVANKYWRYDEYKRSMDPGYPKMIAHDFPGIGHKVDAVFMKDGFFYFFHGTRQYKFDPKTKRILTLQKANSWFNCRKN

Rattus norvegicus [15] = test: AUC in Sprague-Dawley rat at 1 mg/kg, iv; type: ADME, organism-based, Plasma; design: dose 1 mg/kg, route intravenous; settings: in vivo
Rattus norvegicus [16] = test: Volume of distribution at steady state in Sprague-Dawley rat at 1 mg/kg, iv and 10 mg/kg, po; type: ADME, organism-based; settings: in vivo
Cytochrome P450 3A4 = Cytochrome P450 3A4 (Homo sapiens, UniProt P08684); test: Inhibition of human recombinant CYP3A4 using 7-benzyloxy-4-trifluoromethylcoumarin as substrate after 30 mins by fluorimetry; type: ADME
Chain of Cytochrome P450 3A4 (P08684 whole entry): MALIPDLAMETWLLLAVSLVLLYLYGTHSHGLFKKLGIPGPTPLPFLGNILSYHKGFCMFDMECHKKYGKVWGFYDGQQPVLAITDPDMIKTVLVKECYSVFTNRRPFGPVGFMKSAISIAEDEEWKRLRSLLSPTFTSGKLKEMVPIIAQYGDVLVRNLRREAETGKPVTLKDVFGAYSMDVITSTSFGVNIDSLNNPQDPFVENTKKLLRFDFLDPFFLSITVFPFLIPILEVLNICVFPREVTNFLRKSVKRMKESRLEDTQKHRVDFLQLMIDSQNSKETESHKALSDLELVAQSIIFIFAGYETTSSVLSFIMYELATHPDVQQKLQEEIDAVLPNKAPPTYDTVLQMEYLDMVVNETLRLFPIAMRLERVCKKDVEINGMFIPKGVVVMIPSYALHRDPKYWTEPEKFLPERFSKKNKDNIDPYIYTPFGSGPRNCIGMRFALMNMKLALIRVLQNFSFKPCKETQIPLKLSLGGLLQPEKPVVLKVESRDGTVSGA

[17] = Clearance in Sprague-Dawley rat at 1 mg/kg, iv and 10 mg/kg, po; type: ADME, organism-based; settings: in vivo
[18] = Lipophilicity, log P of the compound; type: physicochemical; settings: octanol/water

Chain of 72 kDa type IV collagenase (P08253 whole entry): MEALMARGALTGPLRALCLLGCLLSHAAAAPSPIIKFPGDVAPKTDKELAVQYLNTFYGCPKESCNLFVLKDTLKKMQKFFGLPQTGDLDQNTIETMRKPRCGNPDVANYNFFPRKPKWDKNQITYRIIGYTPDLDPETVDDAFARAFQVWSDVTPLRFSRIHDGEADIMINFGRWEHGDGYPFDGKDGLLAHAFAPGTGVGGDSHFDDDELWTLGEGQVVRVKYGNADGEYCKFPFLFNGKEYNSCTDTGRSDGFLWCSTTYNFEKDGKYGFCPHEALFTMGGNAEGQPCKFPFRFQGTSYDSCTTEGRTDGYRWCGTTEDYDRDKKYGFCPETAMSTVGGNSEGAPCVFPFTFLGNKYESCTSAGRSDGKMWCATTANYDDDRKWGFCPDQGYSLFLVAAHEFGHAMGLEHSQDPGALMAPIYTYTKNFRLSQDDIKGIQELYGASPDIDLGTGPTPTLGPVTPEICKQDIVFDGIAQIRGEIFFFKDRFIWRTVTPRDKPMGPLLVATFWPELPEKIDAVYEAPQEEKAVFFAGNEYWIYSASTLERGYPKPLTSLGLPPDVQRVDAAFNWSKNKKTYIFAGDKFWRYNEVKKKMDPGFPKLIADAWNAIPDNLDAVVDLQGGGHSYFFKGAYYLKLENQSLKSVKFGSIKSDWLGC

Row | SMILES | IC50 [1] [µM] | IC50 (Collagenase 3 [2]) [µM] | IC50 [3] [µM] | IC50 (Collagenase 3 [4]) [µM] | also measured
1 | CCOC(=O)c1cc2cc(-c3cc(C(=O)NCc4ccncc4)nn3C)ccc2[nH]1 | > 500 | 0.09 | > 500 | 0.36 | –
2 | CCOC(=O)c1cc2cc(-c3cc(C(=O)OC)nn3C)ccc2[nH]1 | 83 | 2.4 | 41 | – | –
3 | Cn1nc(C(=O)NCc2ccc(C(=O)O)cc2)cc1-c1ccc2[nH]c(C(=O)O)cc2c1 | – | 25 | – | 56 | Drug metabolism (Liver microsomes): Active
4 | CC(=O)Nc1ccc2[nH]c(C3=NCCO3)cc2c1 | > 500 | 220 | > 500 | – | –
5 | CCOC(=O)c1cc2cc(C(N)=O)ccc2[nH]1 | 60 | – | > 500 | – | –
6 | CCOC(=O)c1cc2cc(NS(C)(=O)=O)ccc2[nH]1 | 210 | 97 | > 500 | – | –
7 | Cn1nc(C(=O)NCc2ccc(C(=O)O)cc2)cc1-c1ccc2[nH]ccc2c1 [BI 4395] | – | > 26 | – | – | hepatic extraction ratio at 5 min [5]: 0.25
8 | CCOC(=O)c1cc2cc(-c3ccccn3)ccc2[nH]1 | > 500 | > 500 | > 500 | – | –
9 | CCOC(=O)c1cc2cc(-c3cc(C(=O)NCc4ccc(CC(=O)O)cc4)nn3C)ccc2[nH]1 | > 22 | – | > 22 | 0.014 | –
10 | CCOC(=O)c1cc2cc(-c3cncn3C)ccc2[nH]1 | 24 | 2.5 | 15 | – | –
11 | CCOC(=O)c1cc2cc(-c3ccncc3)ccc2[nH]1 | 310 | 82 | 225 | – | –
12 | CCOC(=O)c1cc2cc(-c3cc(C(=O)NCc4ccc(C(=O)O)cc4)nn3C)ccc2[nH]1 [BI 4394] | – | 0.001 | – | 0.004 | IC50 (Cytochrome P450 2C9): > 30 µM; IC50 [6]: > 22 µM; IC50 (Collagenase 3 [7]): 0.031 µM; solubility [8]: 60 µg/mL (≈ 134 µM); IC50 (Stromelysin-1): > 22 µM; IC50 (Neutrophil collagenase): > 22 µM; half-life [9]: 28.2 min; bioavailability [10]: 39%; AUC (Rattus norvegicus [11]): 4328 nM.hr/ml; IC50 (Stromelysin-2): 16 µM; IC50 (Matrilysin): > 22 µM; Cmax [12]: 1660 nM; IC50 [13]: 8.9 µM; IC50 (Collagenase 3 [14]): 0.011 µM; IC50 (Interstitial collagenase): > 22 µM; AUC (Rattus norvegicus [15]): 1109 nM.hr/ml; Vdss (Rattus norvegicus [16]): 0.26 L/kg; IC50 (Cytochrome P450 3A4): > 30 µM; clearance [17]: 34 mL/min/kg; logP [18]: 1.9
13 | CCNC(=O)c1cc2cc(C(N)=O)ccc2[nH]1 | > 500 | > 500 | > 500 | – | –
14 | CCOCc1cc2cc(-c3cc(C(=O)NCc4ccc(C(=O)O)cc4)nn3C)ccc2[nH]1 | – | 0.25 | – | 1.9 | hepatic extraction ratio at 5 min [5]: 0.78
15 | CCOC(=O)c1cc2cc(-c3cc(C(=O)NCc4ccncc4)ncc3C)ccc2[nH]1 | > 20 | 0.15 | > 22 | 0.64 | –
16 | CCOC(=O)c1cc2cc(-c3cc(C(=O)NCc4ccc(=O)[nH]c4)nn3C)ccc2[nH]1 | > 24 | 0.12 | 11 | 0.28 | –
17 | CCOC(=O)c1cc2cc(-c3ccccc3)ccc2[nH]1 | > 500 | > 500 | > 500 | – | –
18 | CCCC(=O)c1cc2cc(C(N)=O)ccc2[nH]1 | > 500 | > 500 | > 500 | – | –
19 | CCOC(=O)c1cc2cc(-c3ccncc3C)ccc2[nH]1 | > 500 | 9.6 | > 500 | – | –
20 | CCOC(=O)c1cc2cc(NC(C)=O)ccc2[nH]1 | > 500 | 31 | > 500 | – | –
21 | CCOC(=O)c1cc2cc(-c3cccnc3)ccc2[nH]1 | 30 | 15 | 51 | – | –
